Laboratory results as given in patent US10670605B2, “Cysteine reactive probes and uses thereof” (The Scripps Research Institute, priority 2015, dated 2020).
One block for each molecule: values may come before it.

Key:
Assay in all cases: Competitive isoTOP-ABPP in situ (fragment-treated cells)
Assay type in all cases: cell-based
[1] = molecular target: cysteines in MDA-MB-231 and Ramos cells (Homo sapiens, UniProt Q92616); conditions: 200 μM, insitu
[2] = molecular target: cysteines in MDA-MB-231 and Ramos cells (Homo sapiens, UniProt Q9ULA0); conditions: 200 μM, insitu
[3] = molecular target: T1, cysteines in MDA-MB-231 and Ramos cells (Homo sapiens, UniProt O94953); conditions: 200 μM, insitu, ramos
T1 sequence (O94953 1-1096): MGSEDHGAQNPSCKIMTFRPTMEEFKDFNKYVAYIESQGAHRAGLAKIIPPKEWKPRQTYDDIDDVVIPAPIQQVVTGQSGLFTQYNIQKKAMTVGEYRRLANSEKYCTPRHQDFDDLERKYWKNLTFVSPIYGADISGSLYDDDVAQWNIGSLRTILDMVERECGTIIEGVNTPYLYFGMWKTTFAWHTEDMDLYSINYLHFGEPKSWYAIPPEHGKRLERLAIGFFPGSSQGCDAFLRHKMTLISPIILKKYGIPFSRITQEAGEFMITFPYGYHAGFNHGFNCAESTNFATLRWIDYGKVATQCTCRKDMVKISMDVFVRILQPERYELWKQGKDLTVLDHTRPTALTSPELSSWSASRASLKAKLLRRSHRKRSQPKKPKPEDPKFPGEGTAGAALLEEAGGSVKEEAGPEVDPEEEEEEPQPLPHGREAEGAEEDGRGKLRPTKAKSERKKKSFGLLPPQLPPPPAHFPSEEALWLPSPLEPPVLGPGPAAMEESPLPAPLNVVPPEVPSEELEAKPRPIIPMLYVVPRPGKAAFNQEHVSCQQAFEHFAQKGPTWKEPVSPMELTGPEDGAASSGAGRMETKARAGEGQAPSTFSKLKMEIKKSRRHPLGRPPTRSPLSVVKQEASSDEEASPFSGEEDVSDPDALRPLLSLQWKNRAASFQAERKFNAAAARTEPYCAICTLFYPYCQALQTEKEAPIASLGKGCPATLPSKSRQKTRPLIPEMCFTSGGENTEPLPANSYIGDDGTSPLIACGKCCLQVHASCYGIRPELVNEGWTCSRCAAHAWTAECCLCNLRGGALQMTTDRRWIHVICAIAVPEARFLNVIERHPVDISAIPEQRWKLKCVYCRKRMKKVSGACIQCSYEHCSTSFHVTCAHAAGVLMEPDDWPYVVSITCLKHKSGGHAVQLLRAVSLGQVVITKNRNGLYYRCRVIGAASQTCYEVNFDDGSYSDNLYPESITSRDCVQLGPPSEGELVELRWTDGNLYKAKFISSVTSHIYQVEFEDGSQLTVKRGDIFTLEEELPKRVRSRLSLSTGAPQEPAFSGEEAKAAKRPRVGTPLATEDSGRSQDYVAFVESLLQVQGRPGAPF

[4] = molecular target: T2, cysteines in MDA-MB-231 and Ramos cells (Homo sapiens, UniProt Q16667); conditions: 200 μM, insitu
T2 sequence (Q16667 1-212): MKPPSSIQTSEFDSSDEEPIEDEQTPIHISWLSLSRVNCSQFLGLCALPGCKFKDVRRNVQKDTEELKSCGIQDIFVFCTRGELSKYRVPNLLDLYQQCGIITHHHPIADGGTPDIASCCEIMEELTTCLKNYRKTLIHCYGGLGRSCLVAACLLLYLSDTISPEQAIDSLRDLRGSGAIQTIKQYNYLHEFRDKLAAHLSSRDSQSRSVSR

[5] = molecular target: cysteines in MDA-MB-231 and Ramos cells (Homo sapiens, UniProt Q8IU81); conditions: 200 μM, insitu, 231
[6] = molecular target: cysteines in MDA-MB-231 and Ramos cells (Homo sapiens, UniProt O95881); conditions: 200 μM, insitu, 231
[7] = molecular target: cysteines in MDA-MB-231 and Ramos cells (Homo sapiens, UniProt Q6PCB5); conditions: 200 μM, insitu
[8] = molecular target: T3, cysteines in MDA-MB-231 and Ramos cells (Homo sapiens, UniProt Q02556); conditions: 200 μM, insitu, ramos
T3 sequence (Q02556 1-426): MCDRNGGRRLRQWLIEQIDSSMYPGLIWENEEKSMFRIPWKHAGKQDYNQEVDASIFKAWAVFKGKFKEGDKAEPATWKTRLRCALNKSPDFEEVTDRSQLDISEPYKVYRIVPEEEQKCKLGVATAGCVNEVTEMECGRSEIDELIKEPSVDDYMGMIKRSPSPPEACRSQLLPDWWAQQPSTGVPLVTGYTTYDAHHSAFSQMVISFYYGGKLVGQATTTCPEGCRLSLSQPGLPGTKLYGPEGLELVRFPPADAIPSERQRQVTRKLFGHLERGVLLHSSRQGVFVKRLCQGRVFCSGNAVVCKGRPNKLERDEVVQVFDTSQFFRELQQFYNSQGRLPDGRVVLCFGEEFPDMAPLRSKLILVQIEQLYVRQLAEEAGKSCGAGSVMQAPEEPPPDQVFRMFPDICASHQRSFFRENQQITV

[9] = molecular target: T4, cysteines in MDA-MB-231 and Ramos cells (Homo sapiens, UniProt Q6QNY0); conditions: 200 μM, insitu
T4 sequence (Q6QNY0 1-202): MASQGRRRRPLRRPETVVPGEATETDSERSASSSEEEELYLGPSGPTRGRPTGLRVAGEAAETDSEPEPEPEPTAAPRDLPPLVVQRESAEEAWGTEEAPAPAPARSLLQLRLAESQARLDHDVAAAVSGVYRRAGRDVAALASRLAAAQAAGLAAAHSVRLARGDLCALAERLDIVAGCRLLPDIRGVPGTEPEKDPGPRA

[10] = molecular target: T5, cysteines in MDA-MB-231 and Ramos cells (Homo sapiens, UniProt Q8N5L8); conditions: 200 μM, insitu, 231
T5 sequence (Q8N5L8 1-163): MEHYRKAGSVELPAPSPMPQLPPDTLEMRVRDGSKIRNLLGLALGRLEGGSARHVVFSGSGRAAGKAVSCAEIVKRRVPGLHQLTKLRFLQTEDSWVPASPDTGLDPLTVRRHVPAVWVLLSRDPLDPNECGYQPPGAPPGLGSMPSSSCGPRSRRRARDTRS

[11] = molecular target: cysteines in MDA-MB-231 and Ramos cells (Homo sapiens, UniProt P46013); conditions: 200 μM, insitu
Chain of cysteines in MDA-MB-231 and Ramos cells (Homo sapiens, UniProt P46013) (P46013 whole entry): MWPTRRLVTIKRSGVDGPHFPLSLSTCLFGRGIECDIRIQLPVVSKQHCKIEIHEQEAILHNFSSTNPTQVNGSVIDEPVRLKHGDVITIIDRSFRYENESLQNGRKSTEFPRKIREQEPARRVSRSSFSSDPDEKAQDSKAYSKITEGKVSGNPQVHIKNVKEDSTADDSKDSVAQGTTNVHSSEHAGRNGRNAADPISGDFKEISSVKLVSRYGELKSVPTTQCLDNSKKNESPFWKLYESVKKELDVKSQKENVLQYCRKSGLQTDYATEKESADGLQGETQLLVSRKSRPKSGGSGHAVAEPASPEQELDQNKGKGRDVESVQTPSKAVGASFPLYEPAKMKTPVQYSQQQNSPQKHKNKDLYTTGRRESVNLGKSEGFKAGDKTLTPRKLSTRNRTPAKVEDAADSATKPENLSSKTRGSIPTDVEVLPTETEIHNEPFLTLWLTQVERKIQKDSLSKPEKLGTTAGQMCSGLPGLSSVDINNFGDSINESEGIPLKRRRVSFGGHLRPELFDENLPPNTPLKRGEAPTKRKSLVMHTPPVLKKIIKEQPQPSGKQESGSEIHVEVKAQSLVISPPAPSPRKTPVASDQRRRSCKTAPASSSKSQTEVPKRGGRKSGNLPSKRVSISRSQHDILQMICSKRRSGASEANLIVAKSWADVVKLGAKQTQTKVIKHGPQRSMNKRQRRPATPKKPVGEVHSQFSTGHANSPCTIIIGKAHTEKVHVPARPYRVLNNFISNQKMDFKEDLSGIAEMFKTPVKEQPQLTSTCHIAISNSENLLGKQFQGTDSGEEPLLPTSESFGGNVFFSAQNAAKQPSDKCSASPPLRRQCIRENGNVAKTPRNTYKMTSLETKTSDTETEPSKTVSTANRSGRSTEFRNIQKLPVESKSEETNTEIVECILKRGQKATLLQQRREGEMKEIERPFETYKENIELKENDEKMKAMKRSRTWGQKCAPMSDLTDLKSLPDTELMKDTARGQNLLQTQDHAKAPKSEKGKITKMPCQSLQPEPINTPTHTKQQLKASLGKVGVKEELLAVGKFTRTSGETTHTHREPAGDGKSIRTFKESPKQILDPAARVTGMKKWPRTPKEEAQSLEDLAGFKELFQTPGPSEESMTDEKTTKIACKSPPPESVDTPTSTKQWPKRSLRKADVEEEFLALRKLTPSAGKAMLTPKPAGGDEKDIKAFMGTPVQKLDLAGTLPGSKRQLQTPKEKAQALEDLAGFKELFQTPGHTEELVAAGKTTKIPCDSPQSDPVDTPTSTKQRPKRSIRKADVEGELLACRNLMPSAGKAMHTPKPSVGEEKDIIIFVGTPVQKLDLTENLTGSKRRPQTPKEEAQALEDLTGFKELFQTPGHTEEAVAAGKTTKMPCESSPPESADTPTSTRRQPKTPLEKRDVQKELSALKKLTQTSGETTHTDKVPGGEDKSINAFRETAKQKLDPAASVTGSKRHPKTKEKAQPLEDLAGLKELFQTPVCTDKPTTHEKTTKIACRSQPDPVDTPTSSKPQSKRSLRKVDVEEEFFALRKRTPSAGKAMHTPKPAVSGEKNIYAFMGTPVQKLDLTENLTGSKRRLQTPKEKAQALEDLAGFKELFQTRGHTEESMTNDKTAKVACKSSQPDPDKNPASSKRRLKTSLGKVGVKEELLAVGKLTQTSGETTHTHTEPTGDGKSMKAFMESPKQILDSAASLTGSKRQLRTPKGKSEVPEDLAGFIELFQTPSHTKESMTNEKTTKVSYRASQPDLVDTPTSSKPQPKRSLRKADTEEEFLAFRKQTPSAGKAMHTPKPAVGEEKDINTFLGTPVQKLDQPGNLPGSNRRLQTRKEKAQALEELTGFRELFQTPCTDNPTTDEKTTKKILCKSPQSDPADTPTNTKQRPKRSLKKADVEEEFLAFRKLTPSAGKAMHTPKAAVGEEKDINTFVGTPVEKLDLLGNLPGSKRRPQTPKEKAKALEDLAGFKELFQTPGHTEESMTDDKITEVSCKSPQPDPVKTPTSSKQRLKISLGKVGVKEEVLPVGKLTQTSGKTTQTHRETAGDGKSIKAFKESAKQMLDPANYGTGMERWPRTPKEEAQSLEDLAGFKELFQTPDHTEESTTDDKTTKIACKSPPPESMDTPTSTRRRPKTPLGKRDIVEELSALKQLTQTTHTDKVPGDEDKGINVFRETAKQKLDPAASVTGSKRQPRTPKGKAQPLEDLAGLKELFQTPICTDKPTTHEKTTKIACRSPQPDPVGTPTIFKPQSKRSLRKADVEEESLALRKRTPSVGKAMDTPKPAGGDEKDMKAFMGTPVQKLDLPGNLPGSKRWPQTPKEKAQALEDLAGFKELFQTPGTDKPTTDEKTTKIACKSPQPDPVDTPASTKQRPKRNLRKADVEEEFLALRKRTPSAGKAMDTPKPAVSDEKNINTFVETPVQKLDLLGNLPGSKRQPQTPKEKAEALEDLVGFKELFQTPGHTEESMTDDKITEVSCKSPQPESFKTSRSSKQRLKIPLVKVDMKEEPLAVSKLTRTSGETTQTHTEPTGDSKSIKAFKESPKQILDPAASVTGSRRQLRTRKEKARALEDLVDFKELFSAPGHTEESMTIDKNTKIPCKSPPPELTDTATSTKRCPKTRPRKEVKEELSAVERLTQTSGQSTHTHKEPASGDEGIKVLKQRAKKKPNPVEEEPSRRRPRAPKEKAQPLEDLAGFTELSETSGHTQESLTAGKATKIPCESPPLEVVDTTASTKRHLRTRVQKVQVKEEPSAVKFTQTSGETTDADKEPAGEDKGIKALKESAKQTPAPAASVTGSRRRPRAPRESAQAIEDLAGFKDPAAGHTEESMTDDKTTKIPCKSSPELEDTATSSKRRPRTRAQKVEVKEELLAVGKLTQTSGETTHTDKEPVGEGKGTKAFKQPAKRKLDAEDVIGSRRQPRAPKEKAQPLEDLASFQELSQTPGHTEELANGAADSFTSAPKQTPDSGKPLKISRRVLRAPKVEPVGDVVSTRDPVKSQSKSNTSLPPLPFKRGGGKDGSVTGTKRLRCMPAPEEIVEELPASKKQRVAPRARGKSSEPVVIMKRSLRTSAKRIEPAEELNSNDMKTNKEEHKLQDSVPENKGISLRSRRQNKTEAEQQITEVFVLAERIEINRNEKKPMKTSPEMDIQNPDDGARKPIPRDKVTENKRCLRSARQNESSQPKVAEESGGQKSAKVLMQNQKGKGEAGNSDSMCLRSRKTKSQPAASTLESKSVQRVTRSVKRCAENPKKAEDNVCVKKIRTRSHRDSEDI

Chain of cysteines in MDA-MB-231 and Ramos cells (Homo sapiens, UniProt Q6PCB5) (Q6PCB5 whole entry): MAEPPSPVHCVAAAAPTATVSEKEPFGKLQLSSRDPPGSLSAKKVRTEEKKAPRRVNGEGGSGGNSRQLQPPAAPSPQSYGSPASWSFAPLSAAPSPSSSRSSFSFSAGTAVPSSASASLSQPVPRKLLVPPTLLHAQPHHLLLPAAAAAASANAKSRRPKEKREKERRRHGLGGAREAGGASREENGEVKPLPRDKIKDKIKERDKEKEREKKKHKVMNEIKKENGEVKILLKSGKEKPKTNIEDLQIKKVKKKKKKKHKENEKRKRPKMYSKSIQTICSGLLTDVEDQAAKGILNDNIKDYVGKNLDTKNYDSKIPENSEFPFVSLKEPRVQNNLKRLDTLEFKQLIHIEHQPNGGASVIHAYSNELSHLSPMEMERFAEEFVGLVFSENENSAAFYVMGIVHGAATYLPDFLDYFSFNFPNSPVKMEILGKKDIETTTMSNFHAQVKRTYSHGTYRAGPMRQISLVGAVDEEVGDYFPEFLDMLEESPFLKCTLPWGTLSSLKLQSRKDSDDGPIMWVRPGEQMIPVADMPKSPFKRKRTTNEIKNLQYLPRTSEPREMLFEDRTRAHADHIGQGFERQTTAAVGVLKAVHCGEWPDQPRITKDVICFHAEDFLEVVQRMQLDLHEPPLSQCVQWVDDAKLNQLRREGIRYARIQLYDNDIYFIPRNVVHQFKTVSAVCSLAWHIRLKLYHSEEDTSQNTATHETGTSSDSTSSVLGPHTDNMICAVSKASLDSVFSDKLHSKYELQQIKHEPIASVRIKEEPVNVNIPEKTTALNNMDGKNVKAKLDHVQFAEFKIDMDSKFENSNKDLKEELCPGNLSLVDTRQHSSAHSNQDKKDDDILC
Chain of cysteines in MDA-MB-231 and Ramos cells (Homo sapiens, UniProt Q8IU81) (Q8IU81 whole entry): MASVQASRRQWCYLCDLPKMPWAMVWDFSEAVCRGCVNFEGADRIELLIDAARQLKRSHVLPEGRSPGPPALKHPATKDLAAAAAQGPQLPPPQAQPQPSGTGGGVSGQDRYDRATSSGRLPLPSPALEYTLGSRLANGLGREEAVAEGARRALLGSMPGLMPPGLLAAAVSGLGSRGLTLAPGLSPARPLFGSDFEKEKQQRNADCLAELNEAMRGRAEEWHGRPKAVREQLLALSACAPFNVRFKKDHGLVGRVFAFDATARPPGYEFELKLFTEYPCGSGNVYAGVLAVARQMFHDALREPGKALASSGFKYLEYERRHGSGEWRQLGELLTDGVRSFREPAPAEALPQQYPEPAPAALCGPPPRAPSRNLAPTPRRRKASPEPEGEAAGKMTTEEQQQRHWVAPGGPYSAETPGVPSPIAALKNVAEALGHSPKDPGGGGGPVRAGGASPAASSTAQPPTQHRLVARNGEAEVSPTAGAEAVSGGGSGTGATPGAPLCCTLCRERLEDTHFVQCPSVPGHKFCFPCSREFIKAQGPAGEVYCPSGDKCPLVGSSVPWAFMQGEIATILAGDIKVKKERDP
Chain of cysteines in MDA-MB-231 and Ramos cells (Homo sapiens, UniProt O95881) (O95881 27-172): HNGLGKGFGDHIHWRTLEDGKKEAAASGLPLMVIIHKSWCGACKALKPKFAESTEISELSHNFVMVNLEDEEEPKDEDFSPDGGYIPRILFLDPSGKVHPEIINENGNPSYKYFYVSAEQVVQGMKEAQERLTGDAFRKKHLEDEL

isoTOP-ABPP ratio O95881_C66 [6]: 1.0
isoTOP-ABPP ratio P46013_C903 [11]; 231: 1.1
isoTOP-ABPP ratio Q6QNY0_C168 [9]; 231: 1.0
isoTOP-ABPP ratio Q8IU81_C363 [5]: 1.3
SMILES: C=CC(=O)Nc1cc(F)c(N2CCN(C(=O)OC(C)(C)C)CC2)c(F)c1 [compound 38]

isoTOP-ABPP ratio O95881_C66 [6]: 1.0
isoTOP-ABPP ratio P46013_C903 [11]; 231: 1.0
isoTOP-ABPP ratio Q92616_C1692 [1]; 231: 0.7
isoTOP-ABPP ratio Q9ULA0_C144 [2]; 231: 0.8
SMILES: Cc1ccc(C=C(C#N)C(=O)NCCN2CCOCC2)cc1 [compound 41]

isoTOP-ABPP ratio P46013_C903 [11]; 231: 20.0
isoTOP-ABPP ratio Q8IU81_C363 [5]: 1.7
isoTOP-ABPP ratio Q8N5L8_C131 [10]: 7.3
SMILES: CC1CCc2ccccc2N1C(=O)CCl (stereo not shown) [compound 45]

isoTOP-ABPP ratio P46013_C903 [11]; 231: 1.1
SMILES: O=C(CCl)Nc1cccc2ncccc12 [compound 51]

The remaining lines, values behind:

SMILES: COc1ccc2c(c1)CCCN2C(=O)CCl [compound 2]
isoTOP-ABPP reactivity Q92616_C1692 GCN1L1 [1]; 231: 1.4

SMILES: O=C(CCl)N1CCC(Cc2ccccc2)CC1 [compound 9]
isoTOP-ABPP reactivity Q9ULA0_C144 DNPEP [2]; 231: 2.1

SMILES: O=C(CCl)N1CCN(S(=O)(=O)c2ccccc2F)CC1 [compound 10]
isoTOP-ABPP ratio, cysteine O94953_C694 [3]: 3.9
isoTOP-ABPP ratio, cysteine Q16667_C39 [4]; 231: 2.3
isoTOP-ABPP ratio, cysteine Q8IU81_C363 [5]: 5.9
isoTOP-ABPP ratio, cysteine Q9ULA0_C144 [2]; 231: 5.2

SMILES: O=C(CCl)NC(=O)NC12CC3CC(CC(C3)C1)C2 [compound 12]
isoTOP-ABPP ratio, cysteine O95881_C66 [6]: 20.0
isoTOP-ABPP ratio, cysteine Q6PCB5_C280 [7]; 231: 20.0

SMILES: O=C(CCl)NCCc1c[nH]c2ccccc12 [compound 13]
isoTOP-ABPP ratio, cysteine O94953_C694 [3]: 1.5
isoTOP-ABPP ratio, cysteine O95881_C66 [6]: 20.0
isoTOP-ABPP ratio, cysteine Q02556_C306 [8]: 1.5
isoTOP-ABPP ratio, cysteine Q16667_C39 ([4]; ramos): 1.2
isoTOP-ABPP ratio, cysteine Q6PCB5_C280 ([7]; ramos): 0.8
isoTOP-ABPP ratio, cysteine Q6QNY0_C168 ([9]; ramos): 1.2
isoTOP-ABPP ratio, cysteine Q8N5L8_C131 [10]: 1.2
isoTOP-ABPP ratio, cysteine Q92616_C1692 ([1]; ramos): 0.9

SMILES: O=C(CCl)NC12CC3CC(CC(C3)C1)C2 [compound 21]
isoTOP-ABPP ratio, cysteine Q16667_C39 [4]; 231: 0.8
isoTOP-ABPP ratio, cysteine Q8N5L8_C131 [10]: 0.8

SMILES: CC(C)CCOCCNC(=O)CCl [compound 27]
isoTOP-ABPP ratio Q6PCB5_C280 [7]; 231: 1.0
isoTOP-ABPP ratio Q92616_C1692 [1]; 231: 0.5

SMILES: O=C(CCl)N1CCN(CC(=O)N2CCOCC2)CC1 [compound 29]
isoTOP-ABPP ratio, O94953_C694 [3]: 1.1
isoTOP-ABPP ratio P46013_C903 ([11]; ramos): 1.6
isoTOP-ABPP ratio, Q02556_C306 [8]: 1.4
isoTOP-ABPP ratio Q16667_C39 ([4]; ramos): 1.7
isoTOP-ABPP ratio Q6PCB5_C280 ([7]; ramos): 1.4
isoTOP-ABPP ratio Q6QNY0_C168 ([9]; ramos): 1.6
isoTOP-ABPP ratio Q9ULA0_C144 ([2]; ramos): 1.3

SMILES: C=CC(=O)N(Cc1cccnc1)c1cc(C(F)(F)F)cc(C(F)(F)F)c1 [compound 31]
isoTOP-ABPP ratio, Q02556_C306 [8]: 2.0
isoTOP-ABPP ratio Q8IU81_C363 [5]: 0.7
isoTOP-ABPP ratio Q92616_C1692 [1]; 231: 0.6
isoTOP-ABPP ratio Q92616_C1692 ([1]; ramos): 2.0
